According to ChEMBL document CHEMBL1201862, “PubChem BioAssay data set” (2004):
The source made the active and inactive calls.

What was measured:
[1] = human group III sPLA2 inhibitors, dose response, biochemical, QFRET, IC50 (AID 743457);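 note: green fluorescence rise as the enzyme cleaves BODIPY PC-A2 in liposomes; potency for inhibition of the enzyme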
[2] = biological target: T1, Caspase-6 (Homo sapiens, UniProt P55212); experiment: human caspase-6 inhibitors, dose response, biochemical, VEID-R110 fluorescence, cherry-pick (AID 720632)
T1 sequence (P55212 whole entry): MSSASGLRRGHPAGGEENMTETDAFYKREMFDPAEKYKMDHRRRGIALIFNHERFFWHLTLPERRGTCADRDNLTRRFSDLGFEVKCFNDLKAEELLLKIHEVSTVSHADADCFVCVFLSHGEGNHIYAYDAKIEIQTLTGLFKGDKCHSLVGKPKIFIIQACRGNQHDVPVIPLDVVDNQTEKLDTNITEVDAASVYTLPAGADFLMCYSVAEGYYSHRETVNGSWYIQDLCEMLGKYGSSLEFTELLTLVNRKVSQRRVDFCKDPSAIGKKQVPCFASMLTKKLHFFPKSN

[3] = biological target: Photoreceptor-specific nuclear receptor (Homo sapiens, UniProt Q9Y5X4); experiment: NR2E3 inverse agonists, dose response, biochemical, TR-FRET (AID 463256); format: functional
[4] = biological target: Peroxisome proliferator-activated receptor gamma/Nuclear receptor corepressor 2 (Homo sapiens, UniProt P37231+Q9Y618); experiment: Counterscreen for NR2E3 inverse agonists: TR-FRET-based biochemical high throughput dose response assay to identify inverse agonists of the interaction between peroxisome proliferator-activated receptor gamma (PPARg) and nuclear receptor co-repressor 2 (NCOR2).; format: functional
[5] = biological target: T2, Orexin receptor type 2 (Homo sapiens, UniProt O43614); experiment: Counterscreen assay for antagonists of the orexin 1 receptor (OX1R; HCRTR1): Fluorescence-based cell-based dose response assay for antagonists of the orexin 2 receptor (OX2R; HCRTR2), run by assay provider.; format: functional
T2 sequence (O43614 whole entry): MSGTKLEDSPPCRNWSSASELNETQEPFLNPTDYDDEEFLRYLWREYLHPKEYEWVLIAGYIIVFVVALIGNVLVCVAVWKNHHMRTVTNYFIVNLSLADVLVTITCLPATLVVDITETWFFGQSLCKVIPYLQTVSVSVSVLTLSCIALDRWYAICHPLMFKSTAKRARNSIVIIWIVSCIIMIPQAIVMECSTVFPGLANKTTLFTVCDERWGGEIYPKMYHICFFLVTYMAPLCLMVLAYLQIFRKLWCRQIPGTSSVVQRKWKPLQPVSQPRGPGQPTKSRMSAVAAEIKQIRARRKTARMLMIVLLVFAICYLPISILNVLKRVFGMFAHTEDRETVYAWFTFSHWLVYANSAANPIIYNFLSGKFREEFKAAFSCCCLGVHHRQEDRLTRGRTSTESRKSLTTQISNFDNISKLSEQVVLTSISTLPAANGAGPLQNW

[6] = Counterscreen for antagonists of the orexin 1 receptor (OX1R; HCRTR1): Fluorescence-based cell-based high throughput dose response assay to identify antagonists of the parental CHO cell line. [Related pubchem assays (depositor defined):AID434989, AID435008, AID463079, AID485270, AID492963, AID492964, AID492965, AID493232, AID504699, AID504701]; format: functional
[7] = biological target: T2, Orexin receptor type 2; experiment: Counterscreen assay for antagonists of the orexin 1 receptor (OX1R; HCRTR1): Homogeneous Time Resolved Fluorescence (HTRF)-based cell-based dose response assay for antagonists of the orexin 2 receptor (OX2R; HCRTR2), run by assay provider.; format: functional
[8] = biological target: T3, Orexin/Hypocretin receptor type 1 (Homo sapiens, UniProt O43613); experiment: Homogeneous Time Resolved Fluorescence (HTRF)-based cell-based high throughput dose response assay for antagonists of the orexin 1 receptor (OX1R; HCRTR1). [Related pubchem assays (depositor defined):AID434989, AID435008, AID463079, AID485270, AID492963, AID492964, AID492965, AID493232, AID504717, AID504718]; format: functional
T3 sequence (O43613 whole entry): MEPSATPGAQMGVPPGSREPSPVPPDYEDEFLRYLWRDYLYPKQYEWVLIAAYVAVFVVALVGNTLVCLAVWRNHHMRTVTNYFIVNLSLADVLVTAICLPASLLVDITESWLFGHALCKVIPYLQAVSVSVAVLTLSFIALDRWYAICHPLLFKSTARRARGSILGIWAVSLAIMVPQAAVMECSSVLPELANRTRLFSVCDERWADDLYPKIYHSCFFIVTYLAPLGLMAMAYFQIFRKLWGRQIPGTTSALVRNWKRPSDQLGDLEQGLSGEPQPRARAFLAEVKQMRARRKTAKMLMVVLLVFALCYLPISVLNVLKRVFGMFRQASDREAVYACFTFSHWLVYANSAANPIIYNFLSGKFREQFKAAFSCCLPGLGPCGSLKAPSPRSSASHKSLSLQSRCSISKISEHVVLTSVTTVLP

[9] = biological target: T3, Orexin/Hypocretin receptor type 1; experiment: Fluorescence-based cell-based high throughput dose response assay for antagonists of the orexin 1 receptor (OX1R; HCRTR1). [Related pubchem assays (depositor defined):AID434989, AID435008, AID463079, AID485270, AID492963, AID492964, AID492965, AID493232, AID504717, AID504718]; format: functional
[10] = biological target: T4, Mannose-6-phosphate isomerase (Homo sapiens, UniProt P34949); experiment: inhibitors of human PMI, primary screen, biochemical, fluorescence intensity, coupled assay (AID 1209)
T4 sequence (P34949 whole entry): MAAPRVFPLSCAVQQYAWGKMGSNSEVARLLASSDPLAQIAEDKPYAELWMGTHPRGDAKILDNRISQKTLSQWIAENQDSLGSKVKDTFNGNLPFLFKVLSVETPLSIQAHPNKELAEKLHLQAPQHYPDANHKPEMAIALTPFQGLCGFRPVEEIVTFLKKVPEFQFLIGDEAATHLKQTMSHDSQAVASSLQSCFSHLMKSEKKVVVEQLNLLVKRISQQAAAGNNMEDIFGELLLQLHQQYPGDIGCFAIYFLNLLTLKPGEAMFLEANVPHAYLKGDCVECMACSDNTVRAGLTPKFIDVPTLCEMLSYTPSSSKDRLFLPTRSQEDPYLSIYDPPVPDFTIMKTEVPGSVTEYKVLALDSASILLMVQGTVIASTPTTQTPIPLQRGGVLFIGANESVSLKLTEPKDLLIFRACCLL

[11] = tested on: CHO-K1; experiment: Counterscreen for antagonists of the orexin 1 receptor (OX1R; HCRTR1): Homogeneous time resolved fluorescence (HTRF)-based cell-based dose response assay to identify antagonists of the parental CHO-K1 cell line. [Related pubchem assays (depositor defined):AID434989, AID435008, AID463079, AID485270, AID492963, AID492964, AID492965, AID493232, AID504699, AID504701]; format: functional; settings: Cricetulus griseus;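 note: potency for inhibition of ATP-stimulated IP1 production as antagonists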
[12] = biological target: T5, Disintegrin and metalloproteinase domain-containing protein 17 (Homo sapiens, UniProt P78536); experiment: ADAM17 protease inhibitors, dose response, counter-screen for ADAM10 exosite inhibitor project, biochemical, quenched FRET substrate (AID 743253)
[13] = ADAM10 protease inhibitors, dose response, selectivity assay for ADAM17 exosite inhibitor project, biochemical, FRET peptide substrate, recombinant human ADAM10 (AID 743259);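 note: ADAM10 enzyme cleaving a FRET peptide substrate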
[14] = biological target: T5, Disintegrin and metalloproteinase domain-containing protein 17; experiment: exosite inhibitors of ADAM17, dose response, biochemical (AID 743260)
[15] = biological target: FAD-linked sulfhydryl oxidase ALR (Homo sapiens, UniProt P55789); experiment: inhibitors of human ALR sulfhydryl oxidase, dose response, biochemical, H2O2 detection, luminescence, cherry-pick (AID 493248)
[16] = ADAM10 inhibitors, peptide cleavage, dose response, biochemical, QFRET (AID 743254);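 note: ADAM10 enzyme with the DM2 quenched FRET peptide as substrate; EDANS fluorescence gain as the protease cuts the substrate; inhibitor potency against ADAM10 proteolytic activity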
[17] = biological target: T4, Mannose-6-phosphate isomerase; experiment: human PMI inhibitors, high substrate, primary screen, biochemical, fluorescence intensity, high mannose 6-phosphate (AID 1220)
[18] = Luminescence Cell-Based Dose Retest to Confirm Inhibitors of Cancer Stem Cells. [Related pubchem assays (depositor defined):AID2717, AID2721]; format: functional; settings: Homo sapiens
[19] = ZM109 Env clade C HIV-1 fusion inhibitors, dose response, HeLa effector, CEM target cells, luciferase, cherry-pick (AID 652058); format: functional, cell-based
[20] = inhibitors of HIV Env-driven cell fusion, dose response, cherry-pick (AID 652057); format: functional, cell-based
[21] = inhibitors of clade B AD8 Env fusion, dose response, cell-based, cherry-pick (AID 652062); format: functional;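 note: luciferase signal from cell-cell fusion driven by HIV-1 clade B AD8 Env; potency is for inhibitors of fusion seen as a drop in luminescence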
[22] = tested on: Streptococcus; experiment: Group A Streptococcus viability loss, dose response, counter-screen for streptokinase expression inhibitor project, luminescence, BacTiterGlo (AID 1915); format: functional, organism-based;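 note: potency for reduction of bacterial viability or growth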
[23] = inhibitors of PGC1a acetylation in cells, dose response, cell-based, cherry-picked samples (AID 720514); format: functional;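 note: potency may reflect raised or lowered acetylation signal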
[24] = tested on: Streptococcus sp. 'group A'; experiment: growth inhibition of control SK(-) GAS strain, dose response, counter-screen for streptokinase expression inhibitor project, luminescence, kanamycin, BacTiterGlo, confirmation (AID 1900); format: functional, organism-based
[25] = biological target: T6, Streptokinase A (Streptococcus pyogenes serotype M1, UniProt P10520); experiment: S. pyogenes streptokinase expression inhibitors, potency, dose response, plasminogen activation absorbance, OD405 (AID 1914); format: functional, Streptococcus pyogenes M1 GAS;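 note: secreted streptokinase activity via plasminogen activation per viability signal from cell pellet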
T6 sequence (P10520 whole entry): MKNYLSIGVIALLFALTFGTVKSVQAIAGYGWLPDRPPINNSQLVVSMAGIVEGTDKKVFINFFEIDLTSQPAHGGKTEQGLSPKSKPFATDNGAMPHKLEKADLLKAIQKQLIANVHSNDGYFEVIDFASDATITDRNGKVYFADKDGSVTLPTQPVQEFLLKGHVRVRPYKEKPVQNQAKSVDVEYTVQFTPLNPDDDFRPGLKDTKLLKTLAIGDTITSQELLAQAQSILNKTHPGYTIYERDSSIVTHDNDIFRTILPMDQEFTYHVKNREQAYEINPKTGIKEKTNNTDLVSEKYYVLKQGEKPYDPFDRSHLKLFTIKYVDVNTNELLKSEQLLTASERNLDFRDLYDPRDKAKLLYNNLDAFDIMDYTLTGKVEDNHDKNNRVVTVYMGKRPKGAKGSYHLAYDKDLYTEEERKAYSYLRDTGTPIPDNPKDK

[26] = HEp-2 cell cytotoxicity, dose response, cytotoxicity control for RSV inhibitor project, HTS (AID 2410); format: functional; settings: human respiratory syncytial virus
[27] = P. falciparum 3D7-ScDHODH growth inhibitors, dose response, SYBR Green, dry powder samples (AID 1159570); format: functional, cell-based;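 note: parasite growth measured after 72 hours of compound exposure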
[28] = HepG2 cell cytotoxicity, dose response, cytotoxicity control, plate reader, dry powder samples (AID 1159569); format: functional, cell-based;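 note: inhibitor potency with signal falling toward the positive control level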
[29] = P. falciparum ATP4 D1247Y mutant growth inhibitors, dose response, NITD609-resistant line, SYBR Green, dry powder (AID 1159571); format: functional, cell-based;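 note: parasites synchronized at ring stage by sorbitol before testing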
[30] = P. falciparum Dd2 growth inhibitors, dose response, SYBR Green, dry powder samples (AID 1159566); format: functional, cell-based;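 note: potency for growth inhibition with lower SYBR green DNA signal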
[31] = P. falciparum Dd2 growth inhibitors, dose response, SYBR Green, cherry-picked samples (AID 1159567); format: functional, cell-based
[32] = HeLa 2N DNA content increase, dose response, cell-based, IC50 (AID 1117349); format: functional
[33] = HeLa 4N DNA content increase, dose response, cell-based, IC50 (AID 1117351); format: functional

Photoreceptor-specific nuclear receptor, sequence (Q9Y5X4 whole entry): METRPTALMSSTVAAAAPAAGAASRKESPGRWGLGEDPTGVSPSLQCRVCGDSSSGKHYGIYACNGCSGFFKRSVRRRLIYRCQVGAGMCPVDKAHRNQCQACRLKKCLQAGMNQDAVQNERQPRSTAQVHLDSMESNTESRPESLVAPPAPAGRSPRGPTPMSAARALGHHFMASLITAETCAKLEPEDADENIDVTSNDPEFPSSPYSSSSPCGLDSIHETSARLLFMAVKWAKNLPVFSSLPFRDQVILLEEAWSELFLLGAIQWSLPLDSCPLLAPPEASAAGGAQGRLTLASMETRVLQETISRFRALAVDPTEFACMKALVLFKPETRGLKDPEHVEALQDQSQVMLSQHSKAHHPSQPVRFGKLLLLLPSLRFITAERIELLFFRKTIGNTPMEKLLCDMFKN
Peroxisome proliferator-activated receptor gamma/Nuclear receptor corepressor 2, sequence (P37231 whole entry): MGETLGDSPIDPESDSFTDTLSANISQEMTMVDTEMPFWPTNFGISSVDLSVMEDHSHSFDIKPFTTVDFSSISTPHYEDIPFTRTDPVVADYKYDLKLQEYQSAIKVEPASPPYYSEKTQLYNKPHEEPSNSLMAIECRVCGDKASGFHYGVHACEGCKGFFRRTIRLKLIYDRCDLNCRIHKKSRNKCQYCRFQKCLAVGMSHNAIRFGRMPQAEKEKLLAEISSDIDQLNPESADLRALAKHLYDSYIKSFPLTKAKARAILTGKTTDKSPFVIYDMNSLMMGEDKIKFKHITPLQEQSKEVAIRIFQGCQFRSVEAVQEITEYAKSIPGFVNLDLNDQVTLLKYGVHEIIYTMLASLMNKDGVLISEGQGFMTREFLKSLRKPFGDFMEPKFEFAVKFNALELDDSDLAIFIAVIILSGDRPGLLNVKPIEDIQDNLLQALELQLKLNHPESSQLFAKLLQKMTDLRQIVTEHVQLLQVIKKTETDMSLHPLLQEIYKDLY
Peroxisome proliferator-activated receptor gamma/Nuclear receptor corepressor 2, sequence (Q9Y618 whole entry): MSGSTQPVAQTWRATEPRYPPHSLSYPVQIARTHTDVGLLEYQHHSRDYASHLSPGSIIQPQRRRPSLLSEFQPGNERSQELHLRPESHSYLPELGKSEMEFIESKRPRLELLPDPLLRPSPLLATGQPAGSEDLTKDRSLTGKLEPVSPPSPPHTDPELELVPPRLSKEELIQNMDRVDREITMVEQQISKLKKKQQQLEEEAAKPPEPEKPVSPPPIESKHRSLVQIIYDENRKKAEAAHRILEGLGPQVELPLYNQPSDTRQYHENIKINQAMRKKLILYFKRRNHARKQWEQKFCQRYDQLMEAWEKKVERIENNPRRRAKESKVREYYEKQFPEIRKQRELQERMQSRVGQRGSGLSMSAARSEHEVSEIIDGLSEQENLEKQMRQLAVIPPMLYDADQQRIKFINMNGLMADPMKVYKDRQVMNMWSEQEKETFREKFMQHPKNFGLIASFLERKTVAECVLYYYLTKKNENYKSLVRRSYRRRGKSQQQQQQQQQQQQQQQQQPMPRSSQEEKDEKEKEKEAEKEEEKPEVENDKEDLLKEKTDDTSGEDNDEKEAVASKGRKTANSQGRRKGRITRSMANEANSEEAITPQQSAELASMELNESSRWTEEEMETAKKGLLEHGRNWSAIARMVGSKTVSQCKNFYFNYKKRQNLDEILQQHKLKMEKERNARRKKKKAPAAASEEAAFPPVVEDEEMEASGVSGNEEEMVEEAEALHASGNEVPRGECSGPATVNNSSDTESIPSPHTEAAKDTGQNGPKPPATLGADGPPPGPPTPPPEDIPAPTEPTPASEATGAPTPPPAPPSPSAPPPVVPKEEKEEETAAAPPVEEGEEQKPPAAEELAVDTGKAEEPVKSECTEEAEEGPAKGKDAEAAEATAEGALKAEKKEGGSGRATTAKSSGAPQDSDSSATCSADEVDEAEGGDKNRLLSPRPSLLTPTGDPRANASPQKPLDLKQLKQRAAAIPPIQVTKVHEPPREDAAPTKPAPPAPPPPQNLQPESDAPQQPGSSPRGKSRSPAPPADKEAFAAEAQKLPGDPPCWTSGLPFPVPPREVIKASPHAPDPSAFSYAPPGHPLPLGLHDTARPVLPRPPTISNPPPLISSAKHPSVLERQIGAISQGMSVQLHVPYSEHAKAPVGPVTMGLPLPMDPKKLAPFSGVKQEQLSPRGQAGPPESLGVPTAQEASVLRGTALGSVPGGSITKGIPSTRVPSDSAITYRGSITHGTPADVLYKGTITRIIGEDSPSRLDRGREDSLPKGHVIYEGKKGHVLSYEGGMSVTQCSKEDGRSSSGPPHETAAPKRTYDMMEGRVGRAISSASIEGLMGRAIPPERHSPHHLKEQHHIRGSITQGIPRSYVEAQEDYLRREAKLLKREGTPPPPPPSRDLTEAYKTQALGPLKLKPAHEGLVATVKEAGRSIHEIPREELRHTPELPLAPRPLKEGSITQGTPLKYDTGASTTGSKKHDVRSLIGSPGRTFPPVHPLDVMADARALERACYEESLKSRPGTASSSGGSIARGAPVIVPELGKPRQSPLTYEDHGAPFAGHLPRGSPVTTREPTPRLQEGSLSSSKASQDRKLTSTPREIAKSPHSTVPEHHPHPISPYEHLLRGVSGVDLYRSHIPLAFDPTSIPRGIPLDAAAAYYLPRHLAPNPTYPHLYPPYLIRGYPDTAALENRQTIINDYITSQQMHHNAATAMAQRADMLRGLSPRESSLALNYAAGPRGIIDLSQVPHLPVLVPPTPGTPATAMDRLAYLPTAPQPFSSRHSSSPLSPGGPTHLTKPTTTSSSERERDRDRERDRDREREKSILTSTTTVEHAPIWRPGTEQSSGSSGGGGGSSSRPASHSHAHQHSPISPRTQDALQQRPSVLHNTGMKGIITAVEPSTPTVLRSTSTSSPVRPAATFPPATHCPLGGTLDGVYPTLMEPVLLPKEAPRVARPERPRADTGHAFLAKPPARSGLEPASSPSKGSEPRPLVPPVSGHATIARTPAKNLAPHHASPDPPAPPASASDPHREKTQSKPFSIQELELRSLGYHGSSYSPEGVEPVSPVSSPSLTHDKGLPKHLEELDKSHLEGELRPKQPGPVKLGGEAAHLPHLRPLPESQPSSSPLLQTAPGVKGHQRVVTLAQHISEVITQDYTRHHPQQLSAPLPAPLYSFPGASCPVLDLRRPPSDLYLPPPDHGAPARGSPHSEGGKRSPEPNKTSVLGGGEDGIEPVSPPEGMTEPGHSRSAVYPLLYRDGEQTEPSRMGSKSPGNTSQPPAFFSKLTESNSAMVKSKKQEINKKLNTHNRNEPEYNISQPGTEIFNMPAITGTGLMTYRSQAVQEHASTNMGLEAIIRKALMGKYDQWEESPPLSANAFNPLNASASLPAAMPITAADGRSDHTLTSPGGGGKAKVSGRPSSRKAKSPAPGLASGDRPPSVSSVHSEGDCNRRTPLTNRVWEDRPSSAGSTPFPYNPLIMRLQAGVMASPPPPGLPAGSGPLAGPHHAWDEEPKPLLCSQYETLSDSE
T5 sequence (P78536 whole entry, the tested form may be a part): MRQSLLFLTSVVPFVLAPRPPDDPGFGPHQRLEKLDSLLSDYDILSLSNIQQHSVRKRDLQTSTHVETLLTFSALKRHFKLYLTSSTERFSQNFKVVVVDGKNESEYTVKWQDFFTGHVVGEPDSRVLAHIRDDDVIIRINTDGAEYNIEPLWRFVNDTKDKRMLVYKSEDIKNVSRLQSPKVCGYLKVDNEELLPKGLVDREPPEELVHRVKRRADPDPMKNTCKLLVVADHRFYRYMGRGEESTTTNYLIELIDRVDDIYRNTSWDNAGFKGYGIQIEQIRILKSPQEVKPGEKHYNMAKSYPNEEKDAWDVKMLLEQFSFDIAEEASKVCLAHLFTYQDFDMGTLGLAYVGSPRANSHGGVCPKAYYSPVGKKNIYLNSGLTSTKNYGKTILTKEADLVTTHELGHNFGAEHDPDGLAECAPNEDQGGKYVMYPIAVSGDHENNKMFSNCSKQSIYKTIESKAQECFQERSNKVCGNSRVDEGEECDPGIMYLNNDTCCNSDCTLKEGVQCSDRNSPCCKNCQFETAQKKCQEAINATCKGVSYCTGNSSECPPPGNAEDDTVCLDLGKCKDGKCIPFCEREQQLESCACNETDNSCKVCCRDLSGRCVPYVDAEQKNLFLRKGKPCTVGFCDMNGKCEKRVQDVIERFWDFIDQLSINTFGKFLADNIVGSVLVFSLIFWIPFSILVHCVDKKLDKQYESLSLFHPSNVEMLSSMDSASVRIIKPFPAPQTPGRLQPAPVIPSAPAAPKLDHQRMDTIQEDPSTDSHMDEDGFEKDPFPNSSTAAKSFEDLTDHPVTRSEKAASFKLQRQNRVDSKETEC
FAD-linked sulfhydryl oxidase ALR, sequence (P55789 whole entry): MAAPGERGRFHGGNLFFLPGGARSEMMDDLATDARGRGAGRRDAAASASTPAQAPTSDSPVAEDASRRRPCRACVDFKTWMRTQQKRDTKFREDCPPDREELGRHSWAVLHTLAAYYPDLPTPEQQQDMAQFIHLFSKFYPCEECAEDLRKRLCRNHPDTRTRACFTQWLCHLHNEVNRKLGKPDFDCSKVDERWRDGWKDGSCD

O=C(CNc1ccc(Cl)cc1)NNC(=S)NCc1ccccc1
IC50 [1]: > 122 µM (inactive)

O=C(CCc1nc(O)c2c3c(sc2n1)CCCC3)NCC(=O)Nc1ccccc1Br
AC50 [2]: 26.8 µM (active)

COc1cnn(-c2ccccc2)c(=O)c1SCc1ccc(Cl)c(Cl)c1
IC50 [3]: 5 µM (active)
IC50 [4]: 5.85 µM (active)

Cc1c(Cl)c(C(=O)NN=C(S)Nc2ccc(F)cc2)nn1C
IC50 [1]: > 122 µM (inactive)

CCc1c(C)sc(N=C(S)Nc2nc(C)cc(C)n2)c1C(=O)OC
IC50 [5]: 15 µM (inactive)
IC50 [6]: > 49.8 µM (inactive)
IC50 [7]: > 50 µM (inactive)
IC50 [8]: 2.23 µM (active)
IC50 [9]: 4.29 µM (active)
IC50 [10]: > 50 µM (not active)
IC50 [11]: > 66.2 µM (inactive)

O=C(NO)c1ccc(OC(F)F)cc1
IC50 [12]: 36.5 µM (inactive)
IC50 [13]: 40.2 µM (inactive)
IC50 [14]: 29.5 µM (inactive)
AC50 [15]: 4.38 µM (active)
IC50 [16]: 37 µM (inactive)

CCOC(=O)N1CCN(CCC(=O)c2ccc(Cl)cc2)CC1
IC50 [17]: > 50 µM (not active)
AC50 [18]: 12 µM (active)

O=C(NCCO)c1cc2ccccc2cc1O
IC50 [10]: > 50 µM (not active)

O=C(CSc1ccc(-c2cccs2)nn1)N1CCCCCC1
IC50 [3]: 4.73 µM (active)
IC50 [4]: > 39.8 µM (not active)

CS(=O)(=O)N(CC(=O)N1CCC(C(N)=O)CC1)c1ccc(Oc2ccccc2)cc1
IC50 [3]: 1.05 µM (active)
IC50 [4]: 0.792 µM (active)

C[C@H](CO)N1C[C@H](C)[C@H](CN(C)S(=O)(=O)c2ccc(Cl)cc2)Oc2ccc(NC(=O)Nc3ccc4c(c3)OCO4)cc2C1=O
AC50 [19]: 6.18 µM (active)
AC50 [20]: 2.11 µM (active)
AC50 [21]: 13.7 µM (active)

Oc1ccc(/C=N/Nc2nc(-c3ccc(Cl)cc3)cc(C(F)(F)F)n2)cc1
EC50 [22]: > 150 µM (not active)
AC50 [18]: 4.06 µM (active)
AC50 [23]: 31.7 µM (active)
EC50 [24]: 12.1 µM (active)
EC50 [25]: 16.3 µM (active)
CC50 [26]: 13.4 µM (active)

Cc1ccc(S(=O)(=O)N2C[C@@H]3N[C@H](C2)[C@H]3c2ccc(-c3ccncc3)cc2)cc1
AC50 [27]: 1.26 µM (active)
AC50 [28]: 82.3 µM (active)
AC50 [29]: 1.67 µM (active)
AC50 [30]: 1.03 µM (active)
AC50 [31]: 1.37 µM (active)

CCCN(C)C[C@H]1Oc2ncc(C#Cc3ccc(F)cc3)cc2C(=O)N([C@@H](C)CO)C[C@H]1C
AC50 [27]: 2.14 µM (active)
AC50 [28]: 24.3 µM (active)
AC50 [29]: 1.23 µM (active)
AC50 [30]: 1.24 µM (active)
AC50 [31]: 2.37 µM (active)

Cc1ccc(Nc2nccc(N(C)c3ccc4c(C)n(C)nc4c3)n2)cc1S(N)(=O)=O [PAZOPANIB]
IC50 [32]: > 10 µM (inactive)
IC50 [33]: > 10 µM (inactive)
